In PMC2749132 (The Journal of Biological Chemistry, 2009):

Biological target: T1, MBP-MtHPS (MtHPS, HPS, halimadienyl-diphosphate synthase, Rv3377c) (Mycobacterium tuberculosis, UniProt O50406)
T1 sequence (O50406 1-501): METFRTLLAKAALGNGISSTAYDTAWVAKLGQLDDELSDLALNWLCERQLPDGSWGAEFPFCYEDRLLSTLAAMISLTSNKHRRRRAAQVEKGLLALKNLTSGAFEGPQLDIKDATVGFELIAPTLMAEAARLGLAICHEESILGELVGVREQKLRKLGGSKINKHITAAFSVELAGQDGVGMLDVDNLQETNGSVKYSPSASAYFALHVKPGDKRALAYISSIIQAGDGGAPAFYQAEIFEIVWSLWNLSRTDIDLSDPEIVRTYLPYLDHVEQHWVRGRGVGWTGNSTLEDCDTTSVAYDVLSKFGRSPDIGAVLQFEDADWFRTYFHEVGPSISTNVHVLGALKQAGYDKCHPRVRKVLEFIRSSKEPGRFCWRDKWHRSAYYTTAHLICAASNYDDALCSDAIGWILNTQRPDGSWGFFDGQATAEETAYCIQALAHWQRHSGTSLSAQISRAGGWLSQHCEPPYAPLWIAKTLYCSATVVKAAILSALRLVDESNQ
Assay: GC-FID conversion of GGPP to HPP, substrate inhibition equation
Format: biochemical
Conditions: 0.1 mM Mg2+, pH 7.75, 25 nM enzyme, 1 min

CC(C)=CCC/C(C)=C/CC/C(C)=C/CC/C(C)=C/COP(=O)(O)OP(=O)(O)O [1a, GGPP]
Ki: 18 ± 6 µM
